Read-outs that look alike come from different tables or passages of the source.

The format of this data set is in vivo, patients. The source says:
The clinical experimentation has been carried out on 18 patients of which 14 females and 4 males, having an average age equal to 62 years selected by the inclusion and exclusion criteria as hereinafter reported. The patients submitted to the clinical experimentation suffered from arthritis deformans diagnosed according to the ARA International Criteria since at least two years, belonging to the 2th and 3rd functional classes according to Steinbrocker. The disease was clinically active notwithstanding the use of drugs known as Disease-Modifying AntiRheumatic Drugs ([…]) able to modify the course of the illness such as for example methotrexate azathioprine, chloroquine, hydroxychloroquine and ciclosporin and notwithstanding the use of steroid and not steroid anti-inflammatory drugs. The patients suffering from arthritis deformans of 4th functional class according to Steinbrocker have been excluded from the experimentation that is the patients invalid with permanent injuries, the patients with associated serious systemic diseases, relevant psychiatric and neuropathic diseases, the drug addicts, the patients suffering from hypersensitivity to the macrolides and the patients under treatment with carbamazepine, ciclosporin and antihistamines. The clarithromycin administration started after the suspension of the Disease-Modifying AntiRheumatic Drugs since one month. In six patients who were assuming a steroid anti-inflammatory drug since at least two weeks, the administration of the same steroid drug with a 6 mg dose of prednisonic equivalent has been associated to the administration of clarithromycin. The administration of clarithromycin was 500 mg twice a day for 8-14 days and subsequently a customized dosage from 500 to 2,000 mg per day in one or two administrations has been applied. The control of the patients has been periodically carried out on 0, 10, 30, 60, 90 and 180 days by medical examination and determination of the haematochemical and functional indexes. In particular the following indexes have been controlled: • HAQ (Health Assessment Questionnaire, 1986), internationally validated as reference functional index in the rheumatic disease; • VAS (Visuanalogic Ache Scale according to Scott Huskisson); • ESR (Erythro Sedimentation Rate).

[1] abbreviates: Day 180, clarithromycin 500 mg twice a day for 8-14 days, then 500 to 2,000 mg per day, p < 0.05 (Mann-Whitney U test).

Consider `CC[C@H]1OC(=O)[C@H](C)[C@@H](O[C@H]2C[C@@](C)(OC)[C@@H](O)[C@H](C)O2)[C@H](C)[C@@H](O[C@@H]2O[C@H](C)C[C@H](N(C)C)[C@H]2O)[C@](C)(OC)C[C@@H](C)C(=O)[C@H](C)[C@@H](O)[C@]1(C)O` [clarithromycin], for which the ESR reads like this: (Day 0 (baseline, before clarithromycin), 18 patients, Erythro Sedimentation Rate) 44.8 ± 8.4; under setting [1], 27 ± 5.8 (c). In addition, the HAQ by setting is: (Day 0 (baseline, before clarithromycin), 18 patients, Health Assessment Questionnaire) 20.2 ± 2.6; (Day 180, clarithromycin 500 mg twice a day for 8-14 days, then 500 to 2,000 mg per day, p < 0.0001 (Mann-Whitney U test)) 5.5 ± 0.51 (a). In addition, the VAS is 4.7 ± 0.51 (Day 0 (baseline, before clarithromycin), 18 patients, Visuanalogic Ache Scale according to Scott Huskisson) and 1.32 ± 0.44 (b) under setting [1]. The “side effect ascribable to the drug” value (human, in vivo) is listed as “No significant side effect”. This compound also came in with a patients not responding (number of patients out of 18) of 4. Also, the “patients responding to the therapy” value (number of patients out of 18) is given as 14. For the same compound, the “reduction of the symptomatology” value (starting from the second week of treatment) is “significant reduction of the symptomatology”.

For the origin of these results see patent publication EP1285659A1, “Use of clarithromycin compositions in the manufacture of a medicament for the treatment of arthritis deformans” (Fondazione Salvatore Maugeri, priority 2001, dated 2003).
